Among the test systems are MDA-MB-231 breast; HCT-116 colon; MDA-MB-435; CAKI-1 renal; NCI-H460 lung; HOP-92 NSCLC; UACC-62 melanoma; EKVX NSCLC; XF 498 CNS; M19-MEL melanoma; DMS 273 small cell lung.
Assay in all cases: NCI-60 cell line screen, 48 h

This is an account of results in PubChem BioAssay (NCI).

SMILES strings stand for the structures.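 Interpolation was linear, between the two tested concentrations surrounding the appropriate level; five concentrations were tested over 48 hours in 96-well plates. TGI: concentration producing complete growth inhibition.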

Regarding `CN(C)CCNc1ccc(CO)c2sc3ccc(O)cc3c(=O)c12`, the TGI in the assay with MDA-MB-231 breast was 4.24 µM; in the assay on HCT-116 colon, 9.71 µM; with MDA-MB-435 it was 4.34 µM; in the assay with CAKI-1 renal it was over 25.9 µM; in the assay on NCI-H460 lung, 2.87 µM; with HOP-92 NSCLC, 7.35 µM. Further, the TGI in the assay with UACC-62 melanoma is 7.75 µM; in the assay with EKVX NSCLC it was 19.1 µM; in the assay with XF 498 CNS, 19.9 µM; in the assay with M19-MEL melanoma it was 15.9 µM; in the assay with DMS 273 small cell lung, 9.97 µM.
As for `C=C1C(=O)OC2C/C(C)=C/CC/C(C)=C/CCC3(COC(C)=O)OC3CC12` (stereo unspecified), the TGI in the assay with HCT-116 colon was 3.87 µM; in the assay on CAKI-1 renal, 9.48 µM; with NCI-H460 lung, 25.2 µM; with UACC-62 melanoma it was 27.4 µM; in the assay with EKVX NSCLC it was 38.6 µM; in the assay on XF 498 CNS, 19.5 µM. In addition, the results for the TGI in the assay on M19-MEL melanoma and in the assay on DMS 273 small cell lung were 26.4 µM and 20.9 µM, respectively.
As to `CCN(CC)CCCNc1ccc2nc(C)n3c4ccc(O)cc4c(=O)c1c23`, the TGI in the assay on HCT-116 colon turned out to be 11.1 µM; in the assay with MDA-MB-435 it was 22 µM; in the assay on CAKI-1 renal, 23.6 µM; with NCI-H460 lung, 12.1 µM; with HOP-92 NSCLC it was 11.4 µM; with UACC-62 melanoma, 23.5 µM. Besides, the TGI amounted to 24.4 µM with EKVX NSCLC, 23.3 µM in the assay on XF 498 CNS, 23.8 µM in the assay on M19-MEL melanoma and 13.4 µM with DMS 273 small cell lung.
Regarding `CC(C)(C)c1cc(C(O)(C(F)(F)F)C(F)(F)F)c2c(c1)C(C(F)(F)F)(C(F)(F)F)OC(C)(C(C)(C)C)N2` (stereo unspecified), the TGI in the assay with HCT-116 colon worked out at 13.4 µM; in the assay on NCI-H460 lung, 9.25 µM; in the assay with UACC-62 melanoma it was 15 µM; in the assay with EKVX NSCLC it was 22.4 µM; in the assay with XF 498 CNS it was 4.25 µM; in the assay with M19-MEL melanoma, 9.73 µM. Also, the TGI with DMS 273 small cell lung turned out to be 10.8 µM.
With `CC(=O)N/N=C1\CC(C)(C)C2CCC1C2` (stereo unspecified), the TGI with HCT-116 colon, with CAKI-1 renal, in the assay with NCI-H460 lung, in the assay with HOP-92 NSCLC, in the assay with UACC-62 melanoma and in the assay on EKVX NSCLC was over 100 µM each time. The TGI with XF 498 CNS, in the assay on M19-MEL melanoma and with DMS 273 small cell lung was over 100 µM throughout.
For the molecule `CC1=CC(=O)CC2(C)CC[C@@H]3C[C@]12OC3(C)C` (stereo partly specified), the TGI in the assay with HCT-116 colon, with CAKI-1 renal, with NCI-H460 lung, in the assay on HOP-92 NSCLC, in the assay on UACC-62 melanoma and with EKVX NSCLC was over 100 µM throughout. Moreover, the TGI in the assay with XF 498 CNS, in the assay on M19-MEL melanoma and in the assay on DMS 273 small cell lung was over 100 µM throughout.
In the case of `COc1ccc(OC)c(NC(=O)CCC/C(CC(=O)c2ccc(O)c(OC)c2)=N\Nc2nnc(C)n2N)c1`, the TGI in the assay on CAKI-1 renal, in the assay on NCI-H460 lung, in the assay on HOP-92 NSCLC, with UACC-62 melanoma, in the assay with EKVX NSCLC and in the assay with XF 498 CNS was over 100 µM each time. Besides, the TGI in the assay on M19-MEL melanoma and in the assay on DMS 273 small cell lung was over 100 µM throughout.
As for `COC/C=C\COC`, the TGI in the assay with HCT-116 colon, with CAKI-1 renal, with NCI-H460 lung, with HOP-92 NSCLC, in the assay with UACC-62 melanoma and in the assay with EKVX NSCLC was over 100 µM in each case. In addition, the TGI in the assay on XF 498 CNS, in the assay on M19-MEL melanoma and in the assay on DMS 273 small cell lung was over 100 µM each time.
As to `O=c1/c(=C/c2ccccc2[N+](=O)[O-])sc2nc3ccccc3n12`, the TGI in the assay with HCT-116 colon was over 46.4 µM; in the assay with CAKI-1 renal, over 100 µM; in the assay with NCI-H460 lung, over 46.4 µM; in the assay on HOP-92 NSCLC, over 46.4 µM; in the assay with UACC-62 melanoma it was over 100 µM; in the assay on EKVX NSCLC, over 100 µM. Further, the TGI in the assay with XF 498 CNS was over 59.3 µM; with M19-MEL melanoma, over 46.4 µM; in the assay with DMS 273 small cell lung it was over 46.4 µM.
`CC1/C=C/[C@@]2(C)CCC(C(C)(C)O)C2C(O)C[C@](C)(O)/C=C/C1` (stereo partly specified): the TGI with HCT-116 colon, with CAKI-1 renal, in the assay on NCI-H460 lung, in the assay on HOP-92 NSCLC, in the assay on UACC-62 melanoma and with EKVX NSCLC was over 100 µM throughout. Moreover, the TGI in the assay with XF 498 CNS and with DMS 273 small cell lung was over 100 µM each time.
For `C/C=C(/I)CBr`, the TGI was determined as 27.9 µM with HCT-116 colon; 2.85 µM in the assay with CAKI-1 renal; 37.4 µM with NCI-H460 lung; 29.2 µM in the assay with HOP-92 NSCLC; 29.5 µM in the assay on UACC-62 melanoma; 49 µM in the assay with EKVX NSCLC. The values for the TGI in the assay with XF 498 CNS and in the assay with M19-MEL melanoma were 27 µM and 28.6 µM, respectively.
As for `COc1ccc(C(=O)O[C@H]2[C@@H]3C=CO[C@@H](OC4OC(CO)C(O)C(O)C4O)[C@@H]3[C@@]3(CO)O[C@@H]23)cc1O` (stereo partly specified), the TGI in the assay with CAKI-1 renal, in the assay with NCI-H460 lung, with HOP-92 NSCLC, with UACC-62 melanoma, with EKVX NSCLC and with XF 498 CNS was over 100 µM throughout. The TGI in the assay with M19-MEL melanoma and in the assay with DMS 273 small cell lung was over 100 µM each time.
Turning to `COc1ccc(NC(=O)CC2SC(=Nc3ccccc3C)NC2=O)c([N+](=O)[O-])c1` (stereo unspecified), the TGI in the assay on HCT-116 colon, with NCI-H460 lung, with HOP-92 NSCLC, with UACC-62 melanoma, with XF 498 CNS and in the assay with M19-MEL melanoma was over 100 µM in each case. This molecule also displayed a TGI in the assay on DMS 273 small cell lung of over 100 µM.
For `CC(Oc1ccc2c(-c3ccccc3)cc(=O)oc2c1)C(=O)O` (stereo unspecified), the TGI in the assay with HCT-116 colon, in the assay on CAKI-1 renal, in the assay with NCI-H460 lung, with HOP-92 NSCLC, with UACC-62 melanoma and in the assay with EKVX NSCLC was over 100 µM each time. The TGI in the assay on XF 498 CNS and in the assay on M19-MEL melanoma was over 100 µM each time.
Turning to `CCOC(=O)C(=O)Nc1ccccc1C`, the TGI in the assay on HCT-116 colon, in the assay with CAKI-1 renal, in the assay on NCI-H460 lung, in the assay with HOP-92 NSCLC, in the assay on UACC-62 melanoma and in the assay on EKVX NSCLC was over 100 µM in each case. For the same molecule, the TGI with XF 498 CNS was 87.9 µM; in the assay on M19-MEL melanoma, over 100 µM.
Consider `C#Cc1cccc(N2C(=O)c3c(c(-c4ccccc4)c(-c4ccc(Cc5ccc(-c6c(-c7ccccc7)c7c(c(-c8ccccc8)c6-c6ccccc6)C(=O)N(c6cccc(C#C)c6)C7=O)cc5)cc4)c(-c4ccccc4)c3-c3ccccc3)C2=O)c1`, for which the TGI is over 100 µM in the assay with HCT-116 colon; over 100 µM in the assay on NCI-H460 lung; 29 µM with HOP-92 NSCLC; over 100 µM in the assay with UACC-62 melanoma; over 100 µM with EKVX NSCLC; 72.7 µM in the assay on XF 498 CNS. Moreover, the figures for the TGI with M19-MEL melanoma and in the assay with DMS 273 small cell lung were 52 µM and over 100 µM, respectively.
Consider `CCOC(=O)C1=C(Nc2ccc(Cl)cc2Cl)OCC1=O`, for which the TGI with HCT-116 colon, in the assay with CAKI-1 renal, with NCI-H460 lung, in the assay with HOP-92 NSCLC, with UACC-62 melanoma and in the assay on XF 498 CNS was over 100 µM throughout. For the same molecule, the TGI in the assay on M19-MEL melanoma and with DMS 273 small cell lung was over 100 µM in each case.
For the molecule `CCC(=O)c1c(NOC2OCC(OC(C)=O)C(OC(C)=O)C2OC(C)=O)nc(OC)n(C)c1=O` (stereo unspecified), the TGI in the assay with HCT-116 colon, in the assay on CAKI-1 renal, in the assay on NCI-H460 lung, with HOP-92 NSCLC, in the assay with UACC-62 melanoma and with EKVX NSCLC was over 100 µM each time. The TGI in the assay with XF 498 CNS, with M19-MEL melanoma and in the assay with DMS 273 small cell lung was over 100 µM throughout.
Consider `CCCNC(=O)C1C(=O)C(=O)N(CCC)C1=O` (stereo unspecified), for which the TGI in the assay on HCT-116 colon, in the assay with CAKI-1 renal, with NCI-H460 lung, in the assay with HOP-92 NSCLC, in the assay on UACC-62 melanoma and in the assay with EKVX NSCLC was over 100 µM each time. Further, the TGI with XF 498 CNS, in the assay on M19-MEL melanoma and in the assay on DMS 273 small cell lung was over 100 µM in each case.
`C=CCNc1nc2c(s1)C(=O)c1ccccc1C2=O`: the TGI in the assay with MDA-MB-231 breast was found to be 23.8 µM; in the assay on HCT-116 colon, 13.6 µM; in the assay with MDA-MB-435, 3.31 µM; in the assay on CAKI-1 renal it was 26.8 µM; with NCI-H460 lung it was 28.5 µM; with HOP-92 NSCLC, 21.8 µM. The TGI with UACC-62 melanoma was determined as 9.37 µM; in the assay with EKVX NSCLC, 29 µM; in the assay on XF 498 CNS it was 34.8 µM; with M19-MEL melanoma it was 3.22 µM; in the assay with DMS 273 small cell lung, 28.2 µM.
`NCCSSCCN`: the TGI with MDA-MB-231 breast, in the assay with HCT-116 colon, with MDA-MB-435, with CAKI-1 renal, in the assay on NCI-H460 lung and in the assay on HOP-92 NSCLC was over 100 µM throughout. Also, the TGI in the assay with UACC-62 melanoma, in the assay on EKVX NSCLC, with XF 498 CNS, with M19-MEL melanoma and in the assay with DMS 273 small cell lung was over 100 µM throughout.
As for `COc1ccc(NC(=O)/C(=C/c2ccccc2)C(C)=O)cc1`, the TGI in the assay on CAKI-1 renal is 29.2 µM; with NCI-H460 lung, 62.5 µM; in the assay with HOP-92 NSCLC, 29.6 µM; in the assay with UACC-62 melanoma, 22.3 µM; with EKVX NSCLC, 49.4 µM; with XF 498 CNS, 30.6 µM. Also, the results for the TGI in the assay with M19-MEL melanoma and in the assay with DMS 273 small cell lung were 29.9 µM and 30.8 µM, respectively.
